Experiment [1] deals with CD8+ T cells of healthy HLA-A*02+ donors. Briefly: In vitro immunogenicity: T-cell priming with aAPCs loaded with HLA-A*02/peptide complexes and anti-CD28, pMHC multimer readout. The settings on record: for Wells positive [%]: in vitro immunogenicity, HLA-A*02 peptides (SEQ ID No 1-251), pMHC multimer readout; for in vitro immunogenicity, Wells: HLA-A*02 peptides, share of positive wells. The format is cell-based, human. The source says:
FIGS. 4A to 4D show exemplary results of peptide-specific in vitro CD8+ T cell responses of a healthy HLA-A*02+ donor. CD8+ T cells were primed using artificial APCs coated with anti-CD28 mAb and HLA-A*02 in complex with SeqID No 27 peptide (FIG. 4A, left panel), SeqID No 229 peptide (FIG. 4B, left panel), SeqID No 230 peptide (FIG. 4C, left panel) and SeqID No 235 peptide (FIG. 4D, left panel), respectively. After three cycles of stimulation, the detection of peptide-reactive cells was performed by 2D multimer staining with A*02/SeqID No 27 (FIG. 4A), A*02/SeqID No 229 (FIG. 4B), A*02/SeqID No 230 (FIG. 4C) or A*02/SeqID No 235 (FIG. 4D). Right panels (FIGS. 4A, 4B, 4C and 4D) show control staining of cells stimulated with irrelevant A*02/peptide complexes. Viable singlet cells were gated for CD8+ lymphocytes. Boolean gates helped excluding false-positive events detected with multimers specific for different peptides. Frequencies of specific multimer+ cells among CD8+ lymphocytes are indicated.
In order to obtain information regarding the immunogenicity of the TUMAPs of the present invention, the inventors performed investigations using an in vitro T-cell priming assay based on repeated stimulations of CD8+ T cells with artificial antigen presenting cells (aAPCs) loaded with peptide/MHC complexes and anti-CD28 antibody.
In order to perform in vitro stimulations by artificial antigen presenting cells loaded with peptide-MHC complex (pMHC) and anti-CD28 antibody, the inventors first isolated CD8+ T cells from fresh HLA-A*02 leukapheresis products via positive selection using CD8 microbeads (Miltenyi Biotec, Bergisch-Gladbach, Germany) of healthy donors obtained from the University clinics Mannheim, Germany, after informed consent.
PBMCs and isolated CD8+ lymphocytes were incubated in T-cell medium (TCM) until use consisting of RPMI-Glutamax (Invitrogen, Karlsruhe, Germany) supplemented with 10% heat inactivated human AB serum (PAN-Biotech, Aidenbach, Germany), 100 U/ml Penicillin/100 μg/ml Streptomycin (Cambrex, Cologne, Germany), 1 mM sodium pyruvate (CC Pro, Oberdorla, Germany), 20 μg/ml Gentamycin (Cambrex). 2.5 ng/ml IL-7 (PromoCell, Heidelberg, Germany) and 10 U/ml IL-2 (Novartis Pharma, Nurnberg, Germany) were also added to the TCM at this step.
Generation of pMHC/anti-CD28 coated beads, T-cell stimulations and readout was performed in a highly defined in vitro system using four different pMHC molecules per stimulation condition and 8 different pMHC molecules per readout condition.
The purified co-stimulatory mouse IgG2a anti human CD28 Ab 9.3 (Jung et al., 1987) was chemically biotinylated using Sulfo-N-hydroxysuccinimidobiotin as recommended by the manufacturer (Perbio, Bonn, Germany). Beads used were 5.6 μm diameter streptavidin coated polystyrene particles (Bangs Laboratories, IIIinois, USA).
pMHC used for positive and negative control stimulations were A*0201/MLA-001 (peptide […] (SEQ ID NO. 303) from modified Melan-A/MART-1) and A*0201/DDX5-001 ([…] from DDX5, SEQ ID NO. 304), respectively.
800.000 beads/200 μl were coated in 96-well plates in the presence of 4×12.5 ng different biotin-pMHC, washed and 600 ng biotin anti-CD28 were added subsequently in a volume of 200 μl. Stimulations were initiated in 96-well plates by co-incubating […] CD8+ T cells with 2×10^5 washed coated beads in 200 μl TCM supplemented with 5 ng/ml IL-12 (PromoCell) for 3 days at 37° C. Half of the medium was then exchanged by fresh TCM supplemented with 80 U/ml IL-2 and incubating was continued for 4 days at 37° C. This stimulation cycle was performed for a total of three times. For the pMHC multimer readout using 8 different pMHC molecules per condition, a two-dimensional combinatorial coding approach was used as previously described (Andersen et al., 2012) with minor modifications encompassing coupling to 5 different fluorochromes. […]

For another experiment, the system named is HLA-A*02. The experiment is described as follows: MHC binding assay: UV-ligand exchange and beta2m ELISA, peptide exchange yield. The settings on record: binding to HLA-A*02, UV-ligand exchange, β2m ELISA. On the set-up: species or system human. From the text:
Candidate peptides for T cell based therapies according to the present invention were further tested for their MHC binding capacity (affinity). The individual peptide-MHC complexes were produced by UV-ligand exchange, where a UV-sensitive peptide is cleaved upon UV-irradiation, and exchanged with the peptide of interest as analyzed. Only peptide candidates that can effectively bind and stabilize the peptide-receptive MHC molecules prevent dissociation of the MHC complexes. To determine the yield of the exchange reaction, an ELISA was performed based on the detection of the light chain (β2m) of stabilized MHC complexes. The assay was performed as generally described in Rodenko et al. (Rodenko et al., 2006).
96 well MAXISorp plates (NUNC) were coated over night with 2 ug/ml streptavidin in PBS at room temperature, washed 4× and blocked forl h at 37° C. in 2% BSA containing blocking buffer. Refolded HLA-A*02:01/MLA-001 monomers served as standards, covering the range of 15-500 ng/ml. Peptide-MHC monomers of the UV-exchange reaction were diluted 100 fold in blocking buffer. Samples were incubated for 1 h at 37° C., washed four times, incubated with 2 ug/ml HRP conjugated anti-β2m for 1 h at 37° C., washed again and detected with TMB solution that is stopped with […]. Absorption was measured at 450 nm. Candidate peptides that show a high exchange yield (preferably higher than 50%, most preferred higher than 75%) are generally preferred for a generation and production of antibodies or fragments thereof, and/or T cell receptors or fragments thereof, as they show sufficient avidity to the MHC molecules and prevent dissociation of the MHC complexes.
On the technique in general: An ELISA detects its analyte on a solid surface through an enzyme-linked reagent.

With “4 (KLMPGTYTL; listed as Homo sapiens) [compound 4]”, the “Wells positive [%]” value in experiment [1] is given as “+ (<20% = +)”. Also, the Peptide exchange entry with HLA-A*02 is “++++ (> = 75% = ++++)”.
The matching figures for “12 (GLLPLLHRA; listed as Homo sapiens) [compound 12]”: “++++ (> = 70% = ++++)” and “++++ (> = 75% = ++++)”.
The matching figures for “249 (GLCERLVSL; listed as Homo sapiens) [compound 249]”: “+ (<20% = +)” and “++++ (> = 75% = ++++)”.
On to “290 (KIVDFSYSV; listed as Homo sapiens) [compound 290]”, for which the “in vitro immunogenicity, Wells” value in experiment [1] is given as “++ (20%-49% = ++)”.
For “291 (KLDETGNSL; listed as Homo sapiens) [compound 291]”, the “in vitro immunogenicity, Wells” value in experiment [1] is “+ (<20% = +)”.
On the same count and under the same terms, for “292 (GMMTAILGV; listed as Homo sapiens) [compound 292]” the value was “+ (<20% = +)”; for “293 (FLVDGSWSI; listed as Homo sapiens) [compound 293]”, “+ (<20% = +)”.

Source of the values: patent US10058598B2, “Peptides and combination of peptides for use in immunotherapy against various cancers” (immatics biotechnologies GmbH, priority 2015, dated 2018).
